Literature values in PMC7395068, “The evolution of strategies to minimise the risk of human drug-induced liver injury (DILI) in drug discovery and development” (Archives of Toxicology, 2020).
Read-outs that look alike come from different tables or passages of the source.

What was measured:
[1] = cited from earlier work
[2] = cited from earlier work; remark: listed apart in the source
[3] = cited from earlier work; remark: listed apart in the source
[4] = test system: THLE or HepG2 cells, isolated mitochondria, BSEP; conditions: ref Aleo 2019, cited from earlier work; for Partition Hybrid HRM Score / Ro2 Hybrid HRM Score: In vitro Assay
[5] = FDA drug labelling score, ref Chen 2011
[6] = LTKB DILIrank category, ref Chen 2016
[7] = binary DILI call, ref Chen 2016
[8] = score by FDA drug labelling, scale 1-8, ref Chen 2011
[9] = binary in vivo DILI call given beside the severity category, ref Chen 2016
[10] = human DILI concern category (LTKB DILIrank), ref Chen 2016

Compound: Nc1ccn([C@@H]2O[C@H](CO)[C@@H](O)[C@@H]2O)c(=O)n1 [cytarabine]
- In vivo DILI ([1]; in vivo): +VE
- DILI Score (FDA) (1-8) ([2]; in vivo): 3
- DILI +VE (5-8), DILI -VE (-4) ([3]; in vivo): +VE
- DILI severity category ([3]; in vivo): vMost-DILI-Concern

Compound: CC(=O)O[C@@]12CO[C@@H]1C[C@H](O)[C@@]1(C)C(=O)[C@H](O)C3=C(C)[C@@H](OC(=O)[C@H](O)[C@@H](NC(=O)OC(C)(C)C)c4ccccc4)C[C@@](O)([C@@H](OC(=O)c4ccccc4)[C@H]21)C3(C)C [docetaxel]
- DILI Score (FDA) (1-8) ([2]; FDA drug labelling score, scale 1-8, ref Chen 2011): 8
- DILI +VE (5-8), DILI -VE (-4) ([3]; binary in vivo human DILI call, ref Chen 2016): +VE
- DILI severity category ([3]; human DILI, LTKB DILIrank category, ref Chen 2016): vLess-DILI-Concern

Compound: CC[C@@H](CO)NCCN[C@@H](CC)CO [ethambutol]
- Partition Hybrid HRM Score [4]: -VE
- Ro2 Hybrid HRM Score [4]: -VE
- In vivo DILI ([1]; ref Aleo 2019): +VE
- DILI Score (FDA) (1-8) ([2]; ref Chen 2011): 8
- DILI +VE (5-8), DILI -VE (-4) ([3]; ref Chen 2016): +VE
- DILI severity category ([3]; ref Chen 2016): vMost-DILI-Concern

Compound: CCc1cccc2c3c([nH]c12)C(CC)(CC(=O)O)OCC3 (stereo not drawn) [etodolac]
- Ro2 Hybrid HRM Score [4]: +VE
- In vivo DILI ([1]; ref Aleo 2019): +VE
- DILI Score (FDA) (1-8) ([2]; ref Chen 2011): 8
- DILI +VE (5-8), DILI -VE (-4) ([3]; ref Chen 2016): +VE
- DILI severity category ([3]; ref Chen 2016): vMost-DILI-Concern

Compound: CC(C(=O)O)c1cccc(Oc2ccccc2)c1 (stereo not drawn) [fenoprofen]
- Partition Hybrid HRM Score [4]: +VE
- Ro2 Hybrid HRM Score [4]: +VE
- In vivo DILI ([1]; ref Aleo 2019): +VE
- DILI Score (FDA) (1-8) ([2]; ref Chen 2011): 8
- DILI +VE (5-8), DILI -VE (-4) ([3]; ref Chen 2016): +VE
- DILI severity category ([3]; ref Chen 2016): vMost-DILI-Concern

Compound: Nc1nc(O)c2ncn(COC(CO)CO)c2n1 [ganciclovir]
- DILI Score (FDA) (1-8) [2, 5]: 7
- DILI severity category [3, 6]: Ambiguous DILI-concern
- DILI +VE (5-8), DILI -VE (-4) [3, 7]: -VE

Compound: CCCCCCCCCCC[C@@H](C[C@@H]1OC(=O)[C@H]1CCCCCC)OC(=O)[C@H](CC(C)C)NC=O [orlistat]
- Partition Hybrid HRM Score [4]: +VE
- Ro2 Hybrid HRM Score [4]: +VE
- In vivo DILI ([1]; ref Aleo 2019): +VE
- DILI Score (FDA) (1-8) ([2]; ref Chen 2011): 8
- DILI +VE (5-8), DILI -VE (-4) ([3]; ref Chen 2016): +VE
- DILI severity category ([3]; ref Chen 2016): vMost-DILI-Concern

Compound: CCOC(=O)C1=C[C@@H](OC(CC)CC)[C@H](NC(C)=O)[C@@H](N)C1 [oseltamivir]
- Partition Hybrid HRM Score, In vitro Assay ([4]; Partition hybrid): +VE
- Ro2 Hybrid HRM Score, In vitro Assay ([4]; Rule of Two hybrid): -VE
- DILI Score (FDA) (1-8) [2, 5]: 3
- DILI severity category [3, 6]: Ambiguous DILI-concern
- DILI +VE (5-8), DILI -VE (-4) [3, 7]: -VE

Compound: C[C@]12COC(=O)C[C@@H]1CC[C@@H]1[C@@H]2CC[C@@]2(C)[C@H]1CC[C@]2(C)O [oxandrolone]
- DILI Score (FDA) (1-8) [2, 8]: 8
- DILI +VE (5-8), DILI -VE (-4) [3, 9]: +VE
- DILI severity category [3, 10]: vMost-DILI-Concern

Compound: CN(C)[C@@H]1C(O)=C(C(N)=O)C(=O)[C@@]2(O)C(O)=C3C(=O)c4c(O)cccc4[C@@](C)(O)[C@H]3[C@H](O)[C@@H]12 [oxytetracycline]
- DILI Score (FDA) (1-8) [2, 8]: 2
- DILI +VE (5-8), DILI -VE (-4) [3, 9]: -VE
- DILI severity category [3, 10]: Ambiguous DILI-concern

Compound: CC(C)(S)[C@@H](N)C(=O)O [penicillamine]
- DILI Score (FDA) (1-8) [2, 8]: 3
- DILI +VE (5-8), DILI -VE (-4) [3, 9]: +VE
- DILI severity category [3, 10]: vLess-DILI-Concern

Compound: C[C@]12C=CC(=O)C=C1CC[C@@H]1[C@@H]2[C@@H](O)C[C@@]2(C)[C@H]1CC[C@]2(O)C(=O)CO [prednisolone]
- In vivo DILI ([1]; in vivo): -VE
- DILI Score (FDA) (1-8) ([2]; in vivo): 3
- DILI +VE (5-8), DILI -VE (-4) ([3]; in vivo): +VE
- DILI severity category ([3]; in vivo): vLess-DILI-Concern

Compound: C[C@H](Cn1cnc2c(N)ncnc21)OCP(=O)(O)O [tenofovir]
- DILI Score (FDA) (1-8) [2, 8]: 8
- DILI +VE (5-8), DILI -VE (-4) [3, 9]: +VE
- DILI severity category [3, 10]: vLess-DILI-Concern

Compound: CN(C)CCOc1ccc(/C(=C(/CCCl)c2ccccc2)c2ccccc2)cc1 [toremifene]
- DILI Score (FDA) (1-8) [2, 8]: 3
- DILI +VE (5-8), DILI -VE (-4) [3, 9]: -VE
- DILI severity category [3, 10]: Ambiguous DILI-concern
